The results in this text go back to patent publication US4424342A, “Anthracycline antibiotic compounds” (priority 1981, dated 1984).

Data set [1] deals with L1210 leukemia cells. Kind of data set: Growth inhibition of L1210 leukemia culture cells in vitro. The following applies: for IC50: Mus musculus. It is filed as cell-based, mouse. The protocol: (§1) The 50% inhibitory concentration of trisarubicinol on L1210 leukemia cells was calculated by culturing 5×10^4 cells/ml at 37° C. in 5% CO2 -air in 20% calf serum-supplemented RPMI 1640 medium (Roswell Park Memorial Institute 1640 medium) containing none (control), 0.01 and 0.05 μg/ml of trisarubicinol. In addition. the inhibitory effect of the new anthracycline compound on nucleic acid synthesis was examined as follows: after 5×10^5 cells/ml of L1210 leukemia cells were preincubated in 5% CO2 -air at 37° C. for 1-2 hours in RPMI medium containing 10% calf serum, varied concentrations of trisarubicinol were added and incubated for 15 minutes under the same conditions. Then 0.05 μCi/ml each of ^14 C-uridine or ^14 C-thymidine was added to the cell suspensions and the mixtures were incubated at 37° C. for a further 60 minutes. At the end of incubation, cold 10% trichloroacetic acid was added to stop the incorporation of the radio-labelled compound. The acid-insoluble fractions were collected by centrifugation; rinsed three times with 5% trichloroacetic acid; and dissolved in formic acid for radiometry. The 50% inhibitory concentration of the new anthracycline compound was calculated from the radiometric data of the acid-insoluble fractions of the control and test reaction mixtures.

The subject of data set [2] is L1210 leukemia cells, DNA synthesis. Nature of the data set: DNA synthesis inhibition in L1210 leukemia culture cells (14C-thymidine incorporation). It is filed as cell-based. The settings on record: Mus musculus. The method, then:
as §1

Data set [3] relates to L1210 leukemia cells, RNA synthesis. Nature of the data set: RNA synthesis inhibition in L1210 leukemia culture cells (14C-uridine incorporation). The settings on record: for IC50: Mus musculus. It counts as cell-based, mouse. The protocol: as §1
In data set [4] the test system is L1210 mouse leukemia. Nature of the data set: In vivo activity on L1210 mouse leukemia, prolongation of survival time. On the set-up: species or system mouse (CDF1 mice). The settings on record: for prolongation of survival time (T/C): i.p. every day for 10 days, CDF1 mice. The protocol: The therapeutic effect of trisarubicinol was examined by calculating the prolongation of the survival time of treated animals relative to untreated ones (receiving physiological saline). In practice, 1×10^5 mouse leukemia cells each were intraperitoneally transplanted into CDF1 mice and varied doses of trisarubicinol were intraperitoneally injected every day for 10 days from 24 hours after cell transplantation.

The nature of data set [5]: Acute toxicity. It counts as in vivo.
The subject of data set [6] is various experimental tumors in animals. Nature of the data set: Antitumor activity on various experimental tumors in animals. The settings on record: in vivo.

In brackets after ≈: the same amount, converted by molar mass. Entries after “also recorded” stand apart in the source; their conditions may differ. Like-named read-outs stand apart in the source and are kept apart here.

For `CC(=O)[C@]1(O)Cc2c(O)c3c(c(O)c2[C@@H](O[C@H]2C[C@H](N)[C@H](O)[C@H](C)O2)C1)C(=O)c1c(O)cccc1C3=O` [carminomycin I, reference compound], the IC50 in data set [1] (L1210 culture cells, 5×10^4 cells/ml, 37° C., 20% calf serum-supplemented RPMI 1640, read-out: 50% inhibitory concentration (IC50), cell growth inhibition) came out at 0.01 µg/mL (≈ 0.0195 µM); in data set [2] (L1210 culture cells, 15 min with compound, then 60 min with 14C-thymidine, read-out: 50% inhibitory concentration (IC50), DNA synthesis inhibition) it was 0.2 µg/mL (≈ 0.389 µM); in data set [3] (L1210 culture cells, 15 min with compound, then 60 min with 14C-uridine, read-out: 50% inhibitory concentration (IC50), RNA synthesis inhibition), 0.29 µg/mL (≈ 0.565 µM).

Turning to `CC(O)C1(O)Cc2c(O)c3c(c(O)c2C(O[C@H]2C[C@H](N(C)C)[C@H](O[C@H]4C[C@H](O)[C@H](O[C@H]5CCC(=O)[C@H](C)O5)[C@H](C)O4)[C@H](C)O2)C1)C(=O)c1c(O)cccc1C3=O` (stereo partly shown) [trisarubicinol], in data set [1] (L1210 cultured cells / at low doses), the “growth inhibition of L1210 cells (in words)” value was “markedly inhibits the growth and nucleic acid synthesis in cultured cells of mouse leukemia (L1210); also recorded: significantly inhibits the growth of L1210 mouse leukemia cells at low doses”. Further, the IC50 in data set [1] (L1210, read-out: 50% inhibitory concentration (IC50), cell growth inhibition) stood at 0.01 µg/mL (≈ 0.0127 µM); in data set [2] (L1210, read-out: 50% inhibitory concentration (IC50), DNA synthesis inhibition), 0.38 µg/mL (≈ 0.484 µM); in data set [3] (L1210, read-out: 50% inhibitory concentration (IC50), RNA synthesis inhibition), 0.06 µg/mL (≈ 0.0764 µM). Also, the “antitumor activity compared with carminomycin I (in words)” value in data set [1] (versus carminomycin I, L1210) is on record as “same or better antitumor activity”. In data set [3] (at very low concentrations, versus carminomycin I), the “RNA synthesis inhibition compared with carminomycin I (in words)” value is recorded as “better inhibition of RNA synthesis at very low concentrations”. For the same compound, the “effect on survival time of leukemia cells-holding mice / therapeutic effect (in words)” value in data set [4] (L1210 mouse leukemia) was “marked prolonging effect on the survival time of leukemia cells-holding mice; also recorded: strong therapeutic effect on mouse leukemia (L1210)”. For the same compound, the “prolongation of survival time (T/C)” value in data set [4] (dose 0.63 (head prints "%")) was found to be 122%; in data set [4] (dose 1.25 (head prints "%")) it was 124%; in data set [4] (dose 2.5 (head prints "%")), 159%; in data set [4] (dose 5.0 (head prints "%")), 216%; in data set [4] (dose 7.5 (head prints "%")), 243%; in data set [4] (dose 10 (head prints "%")) it was 131%. In data set [5] (in vivo, ip), the LD50 fell in the range of 40 to 50 mg/kg. Besides, the “toxicity (in words)” value in data set [5] (relative to carminomycin I, general statement) is recorded as “less toxic than carminomycin I; also recorded: unique low toxicity”. Moreover, the “antitumor activity on various experimental tumors in animals (in words)” value in data set [6] was “excellent antitumor activity on various experimental tumors in animals”.
